From US20140005126A1, “SCAFFOLD PEPTIDES” (ISOGENICA LTD, priority 2010, published 2014)
Where a SMILES comes first, the peptide text is derived from it. Bridges are numbered along the chain shown (N, C = ends). The star is where a group is joined. Biotin = O=C1N[C@H]2[C@H](CS[C@H]2CCCCC(=O)*)N1

Tests used:
[1] = Far-UV CD analysis at different temperatures; assay type: physicochemical; details: 0.2 mg/ml peptide
Method: Peptides were resuspended in Molecular Biology Grade water or 10 mM sodium phosphate, pH 7, at a concentration of 200 μM to 1.4 mM. Far-UV scans were measured on an Aviv Model 410 spectrometer measuring at 0.5 nm intervals with a 1 sec averaging time, between 190 and 260 nm using 0.2 mg/ml peptide and a 1 nm bandwidth. Three scans were taken in total at each temperature and the results averaged. The CD scans were plotted using Aviv model 4.10 software, and the data were converted to molar ellipticity (M^−1 cm^−1). […] This far-UV spectrum is characteristic of other small structurally characterised β-sheet structures (Koepf et al. 1999, Protein Science, 8, 841-853; see FIG. 15).

VEGFR2-Fc fusion = target: T1, VEGFR2-Fc fusion (Homo sapiens, UniProt P35968); assay: Real time binding assay by biolayer interferometry (Octet Red), steady state analysis
T1 construct: His tag (only implied: capture on TALON beads, detection with penta His-HRP); purchased R&D Systems
T1 sequence (P35968 with tags, fused parts or gaps): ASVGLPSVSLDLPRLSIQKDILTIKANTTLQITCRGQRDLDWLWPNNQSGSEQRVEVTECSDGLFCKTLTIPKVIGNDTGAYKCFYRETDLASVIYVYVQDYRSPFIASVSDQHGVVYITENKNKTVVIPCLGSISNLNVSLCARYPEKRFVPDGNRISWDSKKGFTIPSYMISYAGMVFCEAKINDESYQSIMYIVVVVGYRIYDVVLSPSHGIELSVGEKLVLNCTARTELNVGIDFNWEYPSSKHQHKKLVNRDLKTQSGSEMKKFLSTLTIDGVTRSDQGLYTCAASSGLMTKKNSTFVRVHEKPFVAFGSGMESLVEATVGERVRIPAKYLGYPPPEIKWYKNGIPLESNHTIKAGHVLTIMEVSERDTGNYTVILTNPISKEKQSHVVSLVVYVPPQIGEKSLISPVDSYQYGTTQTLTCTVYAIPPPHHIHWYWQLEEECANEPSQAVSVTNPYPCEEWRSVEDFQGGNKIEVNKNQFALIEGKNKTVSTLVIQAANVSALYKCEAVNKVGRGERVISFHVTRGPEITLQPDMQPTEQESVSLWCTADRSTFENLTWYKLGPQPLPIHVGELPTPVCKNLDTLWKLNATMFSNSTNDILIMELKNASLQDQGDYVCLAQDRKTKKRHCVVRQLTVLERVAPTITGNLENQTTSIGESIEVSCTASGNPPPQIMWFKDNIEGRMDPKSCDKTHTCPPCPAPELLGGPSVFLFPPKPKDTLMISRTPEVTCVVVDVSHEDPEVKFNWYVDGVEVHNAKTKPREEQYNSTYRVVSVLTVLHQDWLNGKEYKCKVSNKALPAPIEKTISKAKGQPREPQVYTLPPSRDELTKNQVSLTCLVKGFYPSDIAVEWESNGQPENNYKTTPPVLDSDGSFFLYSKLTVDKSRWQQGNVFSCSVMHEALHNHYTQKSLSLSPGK
Method: Alternatively, real-time binding assays between a chemically synthesised WW domain and ligand may be performed using biolayer interferometry with an Octet Red system (Fortebio, Menlo Park, Calif.). Biotinylated WW domain is immobilised to streptavidin biosensors (Fortebio) at a concentration of 50 ng/μl in PBS. Association curves are then detected by incubating WW domain-coated sensors with different concentrations of ligand (e.g. 1 to 100 nM in PBS), and dissociations detected by incubating the sensors in PBS. The dissociation constant for WW domain binding can be determined by steady state analysis.
Real-time binding assays between the peptides and VEGFR2-Fc fusion were performed using biolayer interferometry with an Octet Red system (Fortebio, Menlo Park, Calif.). WW peptides were immobilised on streptavidin biosensors (Fortebio) at a concentration of 2 μg/ml in kinetic buffer. Association curves were then detected by incubating the immobilised peptide with streptavidin-HRP (1 to 100 nM in kinetic buffer), and dissociations were detected by incubating the sensors in kinetic buffer.

[2] = target: T2, binding of VEGFR2 to VEGF (Homo sapiens, UniProt P35968); assay: Competition ELISA: binding of VEGFR2 to VEGF-A coated wells in presence of WW domain peptide
T2 construct: His tag (only implied by detection with penta His-HRP); purchased R&D Systems
T2 sequence (P35968 with tags, fused parts or gaps): as above
Method: A competition assay was carried out in which binding of VEGFR2 to VEGF-A (VEGF) was competed by the presence of varying amounts of the selected modified WW domain peptide.
50 ng human VEGF (R&D Systems, Abingdon, UK) 1 μg/ml in PBS was coated per well onto a Maxisorp plate at 37° C. for 140 minutes. The wells were then blocked with 100 μl PBS containing 2% BSA for 55 minutes at room temperature. 1.25 ng VEGFR2 was preincubated with WW-B1 fused to maltose binding protein (MBP) in 50 μl PBS for 45 minutes at room temperature. The activity of the WW-B1 peptide was tested at serial dilutions from 10 μM to 156.25 nM. 50 μl 4% BSA in PBS was added to the preincubated VEGFR2 with WW-B1-MBP and the whole mixture was then added to the VEGF coated ELISA plate and incubated at room temperature for 55 minutes. The plate was then washed with 3 washes in PBS-Tween and 2 washes in PBS. Next 50 μl/well penta His-HRP (QIAgen, diluted 1:500 in 2% BSA in PBS) was added and the mixture incubated at room temperature for 55 minutes, before washing as before. ELISA signals were detected using SureBlue TMB peroxidase substrate (Insight biotechnology, Middlesex, UK) at 450 nm.
As a control, the above process was repeated with wild-type Pin1 WW domain peptide replacing WW-B1. The results are illustrated in FIG. 6.

Plasma stability assay = assay type: in vitro ADME; details: mouse, 250 μM peptide, 37° C., HPLC area, one phase exponential decay
Method: Peptides were resuspended in Molecular Biology Grade water at a concentration of 3 mM. The WW-B1 peptide was added to 300 μl mouse plasma (Harlan) or PBS (control) to a final concentration of 250 μM (2 samples). The samples were incubated at 37° C. 40 μl aliquots were removed from sample A at 0, 12, 14, 16, 18, 20 and 22 hr and from sample B at 0, 2, 4, 6, 8 and 10 hr. To purify each aliquot, double the volume of 100% ethanol (80 μl) was added and incubated at −20° C. for a few hours or overnight. The samples were centrifuged and 80 μl supernatant recovered. 40 μl water with 0.1% TFA was added to each sample and 100 μl was injected onto a SunFire C18 HPLC column. Buffer A (0.1% TFA in Water) was run through the column followed by 10-50% Buffer B (0.1% TFA, 5% water in 95% acetonitrile) over 20 min. The fractions from the column were collected and analysed using an AXIMA mass spectrometer.

| Compound | structure after heating to 95° C. and cooling to 25° C. [1] | CD peak at 227-231 nm at 95° C. (folding state) [1] | Kd (VEGFR2-Fc fusion; peptide on streptavidin biosensors, 2 μg/ml in kinetic buffer, steady state analysis (Example 4), read-out: dissociation constant / affinity for VEGFR2) | binding affinity to VEGFR2 compared with non-cyclised WW-B1 (VEGFR2-Fc fusion; tested as set out in Example 2) | binding affinity for VEGFR2 (concluded from competition assay) ([2]; control replacing WW-B1) | effect on the binding of VEGFR2 to VEGF ([2]; control replacing WW-B1 in the competition ELISA) | half-life at 250 μM (Plasma stability assay) |
| --- | --- | --- | --- | --- | --- | --- | --- |
| CC[C@H](C)[C@@H]1NC(=O)[C@H](CC(=O)O)NC(=O)[C@H](CC(N)=O)NC(=O)[C@H](C(C)C)NC(=O)[C@H](Cc2ccc(O)cc2)NC(=O)[C@H](CC(C)C)NC(=O)[C@H](C(C)C)NC(=O)[C@H](CCCNC(=N)N)NC(=O)CNC(=O)[C@@H]2CCCN2C(=O)[C@H](CO)NC(=O)[C@H](CO)NC(=O)[C@H](Cc2c[nH]c3ccccc23)NC(=O)[C@H](CCSC)NC(=O)[C@H](CCCCN)NC(=O)[C@H](Cc2ccc(O)cc2)NC(=O)[C@H](Cc2c[nH]c3ccccc23)NC(=O)CNC(=O)[C@@H]2CCCN2C(=O)[C@@H]2CCCN2C(=O)[C@H](CC(C)C)NC(=O)[C@@H](NC(=O)[C@H](CCC(=O)O)NC(=O)[C@H](CCC(=O)O)NC(=O)[C@H](CC(=O)O)NC(=O)CCCC[C@@H]2SC[C@@H]3NC(=O)N[C@@H]32)CCCCNC(=O)CC[C@@H](C(=O)NCC(N)=O)NC(=O)[C@@H]2CCCN2C(=O)[C@H](CCCNC(=N)N)NC(=O)[C@H](CCC(=O)O)NC(=O)[C@H](Cc2c[nH]c3ccccc23)NC(=O)[C@H](CCCNC(=N)N)NC(=O)[C@H](Cc2c[nH]cn2)NC(=O)[C@H](C)NC(=O)[C@H](Cc2c[nH]cn2)NC(=O)[C@H]([C@@H](C)O)NC1=O [cyclised WW-B1] (Biotin-DEEKLPPGWYKMWSSPGRVLYVNDITHAHRWERPEG-NH2; lactam 4-35) | able to reform its structure | unfolding | 31 nM | comparable activity |  |  |  |
| MADEEKLPPGWEKRMSRSSGRVYYFNHITNASQWERPSG [wild-type Pin1 WW domain, peptide fragment of the human Pin1 protein, used as control] |  |  |  |  | negligible | essentially no effect |  |
| CC[C@H](C)[C@H](NC(=O)[C@H](CC(=O)O)NC(=O)[C@H](CC(N)=O)NC(=O)[C@@H](NC(=O)[C@H](Cc1ccc(O)cc1)NC(=O)[C@H](CC(C)C)NC(=O)[C@@H](NC(=O)[C@H](CCCNC(=N)N)NC(=O)CNC(=O)[C@@H]1CCCN1C(=O)[C@H](CO)NC(=O)[C@H](CO)NC(=O)[C@H](Cc1c[nH]c2ccccc12)NC(=O)[C@H](CCSC)NC(=O)[C@H](CCCCN)NC(=O)[C@H](Cc1ccc(O)cc1)NC(=O)[C@H](Cc1c[nH]c2ccccc12)NC(=O)CNC(=O)[C@@H]1CCCN1C(=O)[C@@H]1CCCN1C(=O)[C@H](CC(C)C)NC(=O)[C@H](CCCCN)NC(=O)[C@H](CCC(=O)O)NC(=O)[C@H](CCC(=O)O)NC(=O)[C@H](CC(=O)O)NC(=O)[C@H](C)NC(=O)[C@H](CCSC)NC(=O)CCCC[C@@H]1SC[C@@H]2NC(=O)N[C@@H]21)C(C)C)C(C)C)C(=O)N[C@H](C(=O)N[C@@H](Cc1c[nH]cn1)C(=O)N[C@@H](C)C(=O)N[C@@H](Cc1c[nH]cn1)C(=O)N[C@@H](CCCNC(=N)N)C(=O)N[C@@H](Cc1c[nH]c2ccccc12)C(=O)N[C@@H](CCC(=O)O)C(=O)N[C@@H](CCCNC(=N)N)C(=O)N1CCC[C@H]1C(=O)N[C@@H](CO)C(=O)NCC(N)=O)[C@@H](C)O [WW-B1] (Biotin-MADEEKLPPGWYKMWSSPGRVLYVNDITHAHRWERPSG-NH2; N-terminus and C-terminus assumed) | able to reform its structure | unfolding |  |  |  |  | 372 min |
